In the NIST ThermoML archive (doi:10.1016/j.jct.2010.11.014):

Key:
[1] = molar heat capacity at constant pressure; xn = mol fraction of the nth substance listed; details: 101.3 kPa, Liquid, Adiabatic Solution Calorimetry
[2] = excess molar enthalpy (molar enthalpy of mixing); xn = mol fraction of the nth substance listed; details: 298.15 K, 101.3 kPa, Liquid, Adiabatic Solution Calorimetry

CCn1cc[n+](C)c1.COP(=O)([O-])OC [1-ethyl-3-methylimidazolium dimethylphosphate] + CO
molar heat capacity at constant pressure [J/K/mol], [1]
Details	x1 = 0.2	x1 = 0.41	x1 = 0.59	x1 = 0.77	x1 = 1
298.15 K	147.03	213.84	269.26	297.59	329.37
303.15 K	163.64	229.84	289.07	306.37	346.23
313.15 K	215.28	271.99	337.82	334.16	381.64
323.15 K	252.08	312.33	370.93	371.12	411.74

[2]
Details	excess molar enthalpy [kcal/mol]
x1 = 0.1	-0.376
x1 = 0.3	-0.803
x1 = 0.5	-0.801
x1 = 0.65	-0.62
x1 = 0.79	-0.435

CCn1cc[n+](C)c1.COP(=O)([O-])OC [1-ethyl-3-methylimidazolium dimethylphosphate] + CCO
molar heat capacity at constant pressure [J/K/mol], [1]
Details	x1 = 0.2	x1 = 0.4	x1 = 0.6	x1 = 0.8	x1 = 1
298.15 K	153.21	220.84	272.51	324.35	329.37
303.15 K	171.31	235.29	289.67	348.58	346.23
313.15 K	205.63	282.28	340.78	404	381.64
323.15 K	258.83	335.32	398.34	448.05	411.74

[2]
Details	excess molar enthalpy [kcal/mol]
x1 = 0.15	-0.428
x1 = 0.31	-0.656
x1 = 0.47	-0.57
x1 = 0.59	-0.522
x1 = 0.8	-0.286

CCn1cc[n+](C)c1.COP(=O)([O-])OC [1-ethyl-3-methylimidazolium dimethylphosphate] + O
molar heat capacity at constant pressure [J/K/mol], [1]
Details	x1 = 0.18	x1 = 0.4	x1 = 0.6	x1 = 0.8	x1 = 1
298.15 K	119.02	167.14	224.66	279.14	329.37
303.15 K	125.02	176.74	242.41	288.72	346.23
313.15 K	134.91	203.5	276.49	323.78	381.64
323.15 K	148.41	228.82	304.05	352.68	411.74

[2]
Details	excess molar enthalpy [kcal/mol]
x1 = 0.18	-1.26
x1 = 0.31	-1.51
x1 = 0.45	-1.44
x1 = 0.64	-1.15
x1 = 0.82	-0.604
